Laboratory results: patent US20250049698A1, “BIOACTIVE SERUM FRACTIONS FROM FRESH ROSE FLOWERS AND METHODS FOR THEIR PREPARATION AND USES” (ISP INVESTMENTS LLC, priority 2021, published 2025)

Assay: DPPH free radical scavenging assay
Format: biochemical
Details: positive control; dilution from 5% (w/v) stock solution
Excerpt: DPPH assay provides an easy and rapid way to evaluate potential antioxidants. A free radical is an atom or molecule that has one or more unpaired electrons. The evidence is that reactive species of oxygen (O2-, H2O2, and NO2+) play an important role in inflammation, neurodegenerative disorders, and cancer, etc. Antioxidants can react with the nitrogen centered radical DPPH (2,2-Diphenyl-1-Picrylhydrazyl) and convert it to the non-radical 2,2-Diphenyl-1-Picrylhydrazine. The changes in color (from deep violet to light yellow) were read at 517 nm after 60 min of reaction using a UV/VIS Spectrophotometer. DPPH free radical scavenging method offers the first approach for evaluating the antioxidant potential of a compound or extract. DPPH free radical scavenging activity was determined to assess antioxidant activities for test articles by following protocol. DPPH (Sigma-Aldrich, 300267, St. Louis, MO, USA) solution of 0.06 mM in absolute methanol was prepared. Test articles with different concentrations (20 μl) were mixed with 180 μl of DPPH solution to obtain a total of 200 μl per well in a 96-well plate. After 60 min incubation at room temperature in the dark, the absorbance was measured at 517 nm by using a microplate spectrophotometer Biotek Synergy 2 (Biotek Instruments Inc, Winooski, VT, USA). […] The ability to scavenge DPPH radicle was calculated as % inhibition. […]

DPPH free radical scavenging IC50: 0.01 % (v/v)
Structure (SMILES): O=C1O[C@H]([C@@H](O)CO)C(O)=C1O [L-(+)-ascorbic acid (Vitamin C), L-(+)-ascorbic acid]
